Where a SMILES comes first, the peptide text is derived from it. [ ]: non-standard residue; d: D form. Aib = CC(C)(N)C(=O)O
Legend:
human GCGR = human GCGR (Homo sapiens, UniProt P47871); assay: Peptide-receptor mediated cAMP accumulation (LANCE Ultra cAMP) in CHO-K1 cells transfected with human GCGR; format: cell-based; conditions: Table 3
human GLP-1R = human GLP-1R (Homo sapiens, UniProt P43220); assay: Peptide-receptor mediated cAMP accumulation (LANCE Ultra cAMP) in CHO-K1 cells transfected with human GLP-1R; format: cell-based; conditions: hGLP1 pEC50 (cAMP mean (n = 3): 11 point curve starting at 1 nM, Table 3)
Chain of human GLP-1R (P43220 24-463): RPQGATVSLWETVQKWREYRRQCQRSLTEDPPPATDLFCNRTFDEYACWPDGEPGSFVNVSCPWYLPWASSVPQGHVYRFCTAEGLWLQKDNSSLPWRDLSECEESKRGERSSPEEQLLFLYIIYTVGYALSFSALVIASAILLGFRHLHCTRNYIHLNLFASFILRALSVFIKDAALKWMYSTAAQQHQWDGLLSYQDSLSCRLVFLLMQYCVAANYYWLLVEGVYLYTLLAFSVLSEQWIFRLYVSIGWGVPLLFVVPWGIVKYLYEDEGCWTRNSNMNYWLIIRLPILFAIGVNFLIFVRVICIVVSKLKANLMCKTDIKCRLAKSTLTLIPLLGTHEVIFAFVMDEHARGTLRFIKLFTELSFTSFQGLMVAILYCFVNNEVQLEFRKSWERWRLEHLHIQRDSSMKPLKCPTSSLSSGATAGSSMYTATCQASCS

Chain of human GCGR (P47871 26-477): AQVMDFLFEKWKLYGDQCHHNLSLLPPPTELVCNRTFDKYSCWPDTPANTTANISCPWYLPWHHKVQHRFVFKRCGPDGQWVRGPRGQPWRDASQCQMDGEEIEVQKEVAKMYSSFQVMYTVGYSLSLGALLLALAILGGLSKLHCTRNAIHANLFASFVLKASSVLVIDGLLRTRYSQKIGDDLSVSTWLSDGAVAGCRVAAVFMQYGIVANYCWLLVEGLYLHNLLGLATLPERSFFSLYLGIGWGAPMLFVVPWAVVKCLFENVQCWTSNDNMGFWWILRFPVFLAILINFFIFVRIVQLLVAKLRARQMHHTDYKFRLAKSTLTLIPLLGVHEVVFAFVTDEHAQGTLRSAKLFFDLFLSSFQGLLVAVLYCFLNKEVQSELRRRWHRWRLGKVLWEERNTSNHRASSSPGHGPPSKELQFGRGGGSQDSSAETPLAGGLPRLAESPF

Structure (SMILES)	EC50 (human GCGR) [pM]	EC50 (human GLP-1R) [pM]
CC(C)C[C@H](NC(=O)[C@H](Cc1ccc(O)cc1)NC(=O)[C@H](CCCCN)NC(=O)[C@H](CO)NC(=O)[C@H](Cc1ccc(O)cc1)NC(=O)[C@H](CC(=O)O)NC(=O)[C@H](CO)NC(=O)[C@@H](NC(=O)[C@H](Cc1ccccc1)NC(=O)[C@@H](NC(=O)CNC(=O)[C@H](Cc1c[nH]cn1)NC(=O)[C@H](CO)NC(=O)[C@@H](N)Cc1ccc(O)cc1)[C@@H](C)O)[C@@H](C)O)C(=O)N[C@@H](CC(=O)O)C(=O)NC(C)(C)C(=O)N[C@@H](CCCCN)C(=O)N[C@@H](CCCNC(=N)N)C(=O)N[C@@H](C)C(=O)N[C@@H](CCC(N)=O)C(=O)N[C@@H](CCC(=O)O)C(=O)N[C@@H](Cc1ccccc1)C(=O)N[C@H](C(=O)NC(C)(C)C(=O)N[C@@H](Cc1c[nH]c2ccccc12)C(=O)N[C@@H](CC(C)C)C(=O)N[C@@H](CCC(=O)O)C(=O)N[C@@H](CC(=O)O)C(=O)N[C@@H](CCC(=O)O)C(=O)N[C@@H](CCC(=O)O)C(=O)N1CCC[C@H]1C(=O)N[C@@H](CO)C(=O)N[C@@H](CO)C(=O)NCC(=O)N[C@@H](C)C(=O)N1CCC[C@H]1C(=O)N1CCC[C@H]1C(=O)N1CCC[C@H]1C(=O)N[C@@H](CO)C(=O)O)C(C)C [Compound A10] (H-YSHGTFTSDYSKYLD[Aib]KRAQEFV[Aib]WLEDEEPSSGAPPPS-OH; N-terminus assumed)	5.01	> 1000
CC(C)C[C@H](NC(=O)[C@H](Cc1ccc(O)cc1)NC(=O)[C@H](CCCCN)NC(=O)[C@H](CO)NC(=O)[C@H](Cc1ccc(O)cc1)NC(=O)[C@H](CC(=O)O)NC(=O)[C@H](CO)NC(=O)[C@@H](NC(=O)[C@H](Cc1ccccc1)NC(=O)[C@@H](NC(=O)CNC(=O)[C@H](Cc1c[nH]cn1)NC(=O)[C@H](CO)NC(=O)[C@@H](N)Cc1ccc(O)cc1)[C@@H](C)O)[C@@H](C)O)C(=O)N[C@@H](CC(=O)O)C(=O)NC(C)(C)C(=O)N[C@@H](CCCCN)C(=O)N[C@@H](CCCNC(=N)N)C(=O)N[C@@H](C)C(=O)N[C@@H](CCC(N)=O)C(=O)N[C@@H](CCC(=O)O)C(=O)N[C@@H](Cc1ccccc1)C(=O)N[C@H](C(=O)NC(C)(C)C(=O)N[C@@H](Cc1c[nH]c2ccccc12)C(=O)N[C@@H](CC(C)C)C(=O)N[C@@H](CCC(=O)O)C(=O)N[C@@H](CC(=O)O)C(=O)N[C@@H](CCC(=O)O)C(=O)N[C@@H](CCC(=O)O)C(=O)N[C@@H](CCC(=O)O)C(=O)N1CCC[C@H]1C(=O)N[C@@H](CO)C(=O)N[C@@H](CO)C(=O)NCC(=O)N[C@@H](C)C(=O)N1CCC[C@H]1C(=O)N1CCC[C@H]1C(=O)N1CCC[C@H]1C(=O)N[C@@H](CO)C(=O)O)C(C)C [Compound A11] (H-YSHGTFTSDYSKYLD[Aib]KRAQEFV[Aib]WLEDEEEPSSGAPPPS-OH; N-terminus assumed)	6.31	> 1000
CC(C)C[C@H](NC(=O)[C@H](Cc1ccc(O)cc1)NC(=O)[C@H](CCCCN)NC(=O)[C@H](CO)NC(=O)[C@H](Cc1ccc(O)cc1)NC(=O)[C@H](CC(=O)O)NC(=O)[C@H](CO)NC(=O)[C@@H](NC(=O)[C@H](Cc1ccccc1)NC(=O)[C@@H](NC(=O)CNC(=O)[C@H](Cc1c[nH]cn1)NC(=O)[C@H](CO)NC(=O)[C@@H](N)Cc1ccc(O)cc1)[C@@H](C)O)[C@@H](C)O)C(=O)N[C@@H](CC(=O)O)C(=O)NC(C)(C)C(=O)N[C@@H](CCCCN)C(=O)N[C@@H](CCCNC(=N)N)C(=O)N[C@@H](C)C(=O)N[C@@H](CCC(N)=O)C(=O)N[C@@H](CCC(=O)O)C(=O)N[C@@H](Cc1ccccc1)C(=O)N[C@H](C(=O)NC(C)(C)C(=O)N[C@@H](Cc1c[nH]c2ccccc12)C(=O)N[C@@H](CC(C)C)C(=O)N[C@@H](CCC(=O)O)C(=O)N[C@@H](CC(=O)O)C(=O)N[C@@H](CCC(=O)O)C(=O)N[C@@H](CO)C(=O)N[C@@H](CO)C(=O)NCC(=O)N[C@@H](C)C(=O)N1CCC[C@H]1C(=O)N1CCC[C@H]1C(=O)N1CCC[C@H]1C(=O)N[C@@H](CO)C(=O)O)C(C)C [Compound A14] (H-YSHGTFTSDYSKYLD[Aib]KRAQEFV[Aib]WLEDESSGAPPPS-OH; N-terminus assumed)	1	> 1000
CC(C)C[C@H](NC(=O)[C@H](Cc1ccc(O)cc1)NC(=O)[C@H](CCCCN)NC(=O)[C@H](CO)NC(=O)[C@H](Cc1ccc(O)cc1)NC(=O)[C@H](CC(=O)O)NC(=O)[C@H](CO)NC(=O)[C@@H](NC(=O)[C@H](Cc1ccccc1)NC(=O)[C@@H](NC(=O)CNC(=O)[C@H](Cc1c[nH]cn1)NC(=O)[C@H](CO)NC(=O)[C@@H](N)Cc1ccc(O)cc1)[C@@H](C)O)[C@@H](C)O)C(=O)N[C@@H](CC(=O)O)C(=O)NC(C)(C)C(=O)N[C@@H](CO)C(=O)N[C@@H](CCCNC(=N)N)C(=O)N[C@@H](C)C(=O)N[C@@H](CCC(N)=O)C(=O)N[C@@H](CCC(=O)O)C(=O)N[C@@H](Cc1ccccc1)C(=O)N[C@H](C(=O)NC(C)(C)C(=O)N[C@@H](Cc1c[nH]c2ccccc12)C(=O)N[C@@H](CC(C)C)C(=O)N[C@@H](CCC(=O)O)C(=O)N[C@@H](CC(=O)O)C(=O)N[C@@H](CCC(=O)O)C(=O)N1CCC[C@H]1C(=O)N[C@@H](CO)C(=O)N[C@@H](CO)C(=O)NCC(=O)N[C@@H](C)C(=O)N1CCC[C@H]1C(=O)N1CCC[C@H]1C(=O)N1CCC[C@H]1C(=O)N[C@@H](CO)C(=O)O)C(C)C [Compound A15] (H-YSHGTFTSDYSKYLD[Aib]SRAQEFV[Aib]WLEDEPSSGAPPPS-OH; N-terminus assumed)	3.98	> 1000
CC(C)C[C@H](NC(=O)[C@H](Cc1ccc(O)cc1)NC(=O)[C@H](CCCCN)NC(=O)[C@H](CO)NC(=O)[C@H](Cc1ccc(O)cc1)NC(=O)[C@H](CC(=O)O)NC(=O)[C@H](CO)NC(=O)[C@@H](NC(=O)[C@H](Cc1ccccc1)NC(=O)[C@@H](NC(=O)CNC(=O)[C@H](Cc1c[nH]cn1)NC(=O)[C@H](CO)NC(=O)[C@@H](N)Cc1ccc(O)cc1)[C@@H](C)O)[C@@H](C)O)C(=O)N[C@@H](CC(=O)O)C(=O)NC(C)(C)C(=O)N[C@H](C(=O)N[C@@H](CCCNC(=N)N)C(=O)N[C@@H](C)C(=O)N[C@@H](CCC(N)=O)C(=O)N[C@@H](CCC(=O)O)C(=O)N[C@@H](Cc1ccccc1)C(=O)N[C@H](C(=O)NC(C)(C)C(=O)N[C@@H](Cc1c[nH]c2ccccc12)C(=O)N[C@@H](CC(C)C)C(=O)N[C@@H](CCC(=O)O)C(=O)N[C@@H](CC(=O)O)C(=O)N[C@@H](CCC(=O)O)C(=O)N1CCC[C@H]1C(=O)N[C@@H](CO)C(=O)N[C@@H](CO)C(=O)NCC(=O)N[C@@H](C)C(=O)N1CCC[C@H]1C(=O)N1CCC[C@H]1C(=O)N1CCC[C@H]1C(=O)N[C@@H](CO)C(=O)O)C(C)C)[C@@H](C)O [Compound A16] (H-YSHGTFTSDYSKYLD[Aib]TRAQEFV[Aib]WLEDEPSSGAPPPS-OH; N-terminus assumed)	1.26	> 1000
CC(C)C[C@H](NC(=O)[C@H](Cc1ccc(O)cc1)NC(=O)[C@H](CCCCN)NC(=O)[C@H](CO)NC(=O)[C@H](Cc1ccc(O)cc1)NC(=O)[C@H](CC(=O)O)NC(=O)[C@H](CO)NC(=O)[C@@H](NC(=O)[C@H](Cc1ccccc1)NC(=O)[C@@H](NC(=O)CNC(=O)[C@H](Cc1c[nH]cn1)NC(=O)[C@H](CO)NC(=O)[C@@H](N)Cc1ccc(O)cc1)[C@@H](C)O)[C@@H](C)O)C(=O)N[C@@H](CC(=O)O)C(=O)NC(C)(C)C(=O)N[C@@H](CCC(=O)O)C(=O)N[C@@H](CCCNC(=N)N)C(=O)N[C@@H](C)C(=O)N[C@@H](CCC(N)=O)C(=O)N[C@@H](CCC(=O)O)C(=O)N[C@@H](Cc1ccccc1)C(=O)N[C@H](C(=O)NC(C)(C)C(=O)N[C@@H](Cc1c[nH]c2ccccc12)C(=O)N[C@@H](CC(C)C)C(=O)N[C@@H](CCC(=O)O)C(=O)N[C@@H](CC(=O)O)C(=O)N[C@@H](CCC(=O)O)C(=O)N1CCC[C@H]1C(=O)N[C@@H](CO)C(=O)N[C@@H](CO)C(=O)NCC(=O)N[C@@H](C)C(=O)N1CCC[C@H]1C(=O)N1CCC[C@H]1C(=O)N1CCC[C@H]1C(=O)N[C@@H](CO)C(=O)O)C(C)C [Compound A17] (H-YSHGTFTSDYSKYLD[Aib]ERAQEFV[Aib]WLEDEPSSGAPPPS-OH)	7.94	> 1000
CC(C)C[C@H](NC(=O)[C@H](Cc1c[nH]c2ccccc12)NC(=O)[C@H](CCCCN)NC(=O)[C@H](CO)NC(=O)[C@H](Cc1ccc(O)cc1)NC(=O)[C@H](CC(=O)O)NC(=O)[C@H](CO)NC(=O)[C@@H](NC(=O)[C@H](Cc1ccccc1)NC(=O)[C@@H](NC(=O)CNC(=O)[C@H](Cc1c[nH]cn1)NC(=O)[C@H](CO)NC(=O)[C@@H](N)Cc1ccc(O)cc1)[C@@H](C)O)[C@@H](C)O)C(=O)N[C@@H](CC(=O)O)C(=O)NC(C)(C)C(=O)N[C@@H](CO)C(=O)N[C@@H](CCCNC(=N)N)C(=O)N[C@@H](C)C(=O)N[C@@H](CCC(N)=O)C(=O)N[C@@H](CCC(=O)O)C(=O)N[C@@H](Cc1ccccc1)C(=O)N[C@H](C(=O)NC(C)(C)C(=O)N[C@@H](Cc1c[nH]c2ccccc12)C(=O)N[C@@H](CC(C)C)C(=O)N[C@@H](CCC(=O)O)C(=O)N[C@@H](CC(=O)O)C(=O)N[C@@H](CCC(=O)O)C(=O)N1CCC[C@H]1C(=O)N[C@@H](CO)C(=O)N[C@@H](CO)C(=O)NCC(=O)N[C@@H](C)C(=O)N1CCC[C@H]1C(=O)N1CCC[C@H]1C(=O)N1CCC[C@H]1C(=O)N[C@@H](CO)C(=O)O)C(C)C [Compound A19] (H-YSHGTFTSDYSKWLD[Aib]SRAQEFV[Aib]WLEDEPSSGAPPPS-OH; N-terminus assumed)	10	> 1000

Source: patent publication US20240239861A1, “GLUCAGON-RECEPTOR SELECTIVE POLYPEPTIDES AND METHODS OF USE THEREOF” (i2O Therapeutics, Inc., priority 2016, published 2024)
